The values below come from patent publication US10285989B2, “Pyrimidinone amide compounds as PDE2 inhibitors” (Merck Sharp & Dohme Corp., priority 2015, dated 2019).

Test [1] concerns the target Rhesus PDE2A3 (Macaca mulatta, UniProt B3VTJ2). The experiment in a line: PDE2 fluorescence polarization (IMAP FP) inhibition assay, rhesus PDE2A3. The class given is biochemical, rhesus macaque. The protocol:
A Labcyte Echo 555 (Labcyte, Sunnyvale, Calif.) is used to dispense 200 nL from each well of the titration plate to the 384 well assay plate. Ten microliters of a solution of enzyme (1/2000 final dilution from aliquots; sufficient to produce 20% substrate conversion) was added to the assay plate. Next 10 uL of a separate solution of the substrate FAM-labeled cAMP (50 nM final concentration product # R^7506 from Molecular Devices) and the activator cGMP (1 uM final concentration), prepared in the assay buffer (10 mM Tris HCl, pH 7.2, 10 mM MgCl2, 0.05% NaN3 0.01% Tween-20, and 1 mM DTT) was added to the assay plate and shaken to mix. The reaction is allowed to proceed at room temperature for 60 minutes. A binding solution is then made from the kit components, comprised of 80% Solution A, 20% Solution B and binding reagent at a volume of 1/600 the total binding solution. The enzymatic reaction is stopped by addition of 60 μL of the binding solution to each well of the assay plates and the plates are sealed and shaken for 30 seconds. The plate was incubated at room temperature for at least one hour prior to determining the fluorescence polarization (FP). The parallel and perpendicular fluorescence of each well of the plate was measured using a Tecan Genios Pro plate reader (Tecan, Switzerland) or Perkin Elmer EnVision™ plate reader (Waltham, Mass.). Fluorescence polarization (mP) was calculated from the parallel (S) and perpendicular (P) fluorescence of each sample well and the analogous values for the median control well, containing only substrate (So and Po), using the following equation: Polarization (mP)=1000*(S/So−P/Po)/(S/So+P/Po).
Dose-inhibition profiles for each compound were characterized by fitting the mP data to a four-parameter equation given below.
An apparent (KM) for FAM-labeled cAMP of ˜10 uM was used.
On the technique in general: Polarisation of emitted light reports the rotation of a fluorescent probe.

Test [2] has as its target human PDE2A1 (Homo sapiens (Human), UniProt O00408). The test is described as follows: PDE2 IMAP FP inhibition assay, human PDE2A1 (selectivity panel format). The class given is biochemical. The procedure:
Selectivity for PDE2, as compared to other PDE families, was assessed using the IMAP® technology. Human PDE10A2 enzyme was prepared from cytosolic fractions of transiently transfected HEK cells.
A Labcyte POD 810 (Labcyte, Sunnyvale, Calif.) was used to dispense 200 nL from each well of the titration plate to make eleven copies of the assay plate for each titration, one copy for each PDE enzyme. A solution of each enzyme (dilution from aliquots, sufficient to produce 20% substrate conversion) and a separate solution of FAM-labeled cAMP or FAM-labeled cGMP from Molecular Devices (Sunnyvale, Calif., product # R7506 or cGMP#R7508), at a final concentration of 50 nM were made in the assay buffer (10 mM Tris HCl, pH 7.2, 10 mM MgCl2, 0.05% NaN3 0.01% Tween-20, and 1 mM DTT). Note that the substrate for PDE2 is 50 nM FAM cAMP containing 1000 nM of cGMP. The enzyme and the substrate were then added to the assay plates in two consecutive additions of 10 μL and then shaken to mix. The reaction was allowed to proceed at room temperature for 60 minutes. A binding solution was then made from the kit components, comprised of 80% Solution A, 20% Solution B and binding reagent at a volume of 1/600 the total binding solution. The enzymatic reaction was stopped by addition of 60 μL of the binding solution to each well of the assay plate. The plates were sealed and shaken for 10 seconds. The plates were incubated at room temperature for one hour, then the parallel and perpendicular fluorescence was measured using a Tecan Genios Pro plate reader (Tecan, Switzerland). […] The intrinsic PDE2 inhibitory activity of a compound which may be used in accordance with the present invention may be determined by these assays. […]

Where [3] appears, read: Lab B, read-out: Rhesus PDE2 Ki (nM) - Lab B.
Setting [4] is: Lab B, read-out: Human PDE2 Ki (nM) - Lab B.
[5] abbreviates: Lab A, read-out: Rhesus PDE2 Ki (nM) - Lab A.
Setting [6] is: Lab A, read-out: Human PDE2 Ki (nM) - Lab A.

Like-named read-outs stand apart in the source and are kept apart here.

Chain of human PDE2A1 (O00408 other isoform, or with tags, fused parts or gaps): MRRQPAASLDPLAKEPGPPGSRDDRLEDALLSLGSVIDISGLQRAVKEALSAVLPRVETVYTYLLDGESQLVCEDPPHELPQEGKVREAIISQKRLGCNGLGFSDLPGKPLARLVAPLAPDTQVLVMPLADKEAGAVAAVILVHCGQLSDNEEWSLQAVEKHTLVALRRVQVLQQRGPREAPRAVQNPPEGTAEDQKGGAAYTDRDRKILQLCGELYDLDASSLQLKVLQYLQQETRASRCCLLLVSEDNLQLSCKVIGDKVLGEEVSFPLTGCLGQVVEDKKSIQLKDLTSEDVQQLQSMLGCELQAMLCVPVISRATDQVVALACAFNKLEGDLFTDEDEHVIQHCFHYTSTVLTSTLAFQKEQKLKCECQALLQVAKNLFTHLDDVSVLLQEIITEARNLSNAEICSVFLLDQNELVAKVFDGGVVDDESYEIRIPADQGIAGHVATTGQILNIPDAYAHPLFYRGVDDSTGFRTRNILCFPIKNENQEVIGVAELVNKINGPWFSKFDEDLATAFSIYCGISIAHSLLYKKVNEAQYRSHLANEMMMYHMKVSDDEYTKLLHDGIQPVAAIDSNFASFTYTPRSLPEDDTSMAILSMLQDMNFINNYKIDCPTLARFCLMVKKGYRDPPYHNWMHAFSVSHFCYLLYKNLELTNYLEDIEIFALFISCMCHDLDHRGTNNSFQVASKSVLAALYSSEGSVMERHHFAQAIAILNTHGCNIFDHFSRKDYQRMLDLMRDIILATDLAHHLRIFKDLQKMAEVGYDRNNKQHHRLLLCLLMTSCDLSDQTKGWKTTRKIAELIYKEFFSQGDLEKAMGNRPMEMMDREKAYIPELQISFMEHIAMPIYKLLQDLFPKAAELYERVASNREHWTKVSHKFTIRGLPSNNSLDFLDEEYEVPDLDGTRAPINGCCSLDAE
Chain of Rhesus PDE2A3 (B3VTJ2 1-941): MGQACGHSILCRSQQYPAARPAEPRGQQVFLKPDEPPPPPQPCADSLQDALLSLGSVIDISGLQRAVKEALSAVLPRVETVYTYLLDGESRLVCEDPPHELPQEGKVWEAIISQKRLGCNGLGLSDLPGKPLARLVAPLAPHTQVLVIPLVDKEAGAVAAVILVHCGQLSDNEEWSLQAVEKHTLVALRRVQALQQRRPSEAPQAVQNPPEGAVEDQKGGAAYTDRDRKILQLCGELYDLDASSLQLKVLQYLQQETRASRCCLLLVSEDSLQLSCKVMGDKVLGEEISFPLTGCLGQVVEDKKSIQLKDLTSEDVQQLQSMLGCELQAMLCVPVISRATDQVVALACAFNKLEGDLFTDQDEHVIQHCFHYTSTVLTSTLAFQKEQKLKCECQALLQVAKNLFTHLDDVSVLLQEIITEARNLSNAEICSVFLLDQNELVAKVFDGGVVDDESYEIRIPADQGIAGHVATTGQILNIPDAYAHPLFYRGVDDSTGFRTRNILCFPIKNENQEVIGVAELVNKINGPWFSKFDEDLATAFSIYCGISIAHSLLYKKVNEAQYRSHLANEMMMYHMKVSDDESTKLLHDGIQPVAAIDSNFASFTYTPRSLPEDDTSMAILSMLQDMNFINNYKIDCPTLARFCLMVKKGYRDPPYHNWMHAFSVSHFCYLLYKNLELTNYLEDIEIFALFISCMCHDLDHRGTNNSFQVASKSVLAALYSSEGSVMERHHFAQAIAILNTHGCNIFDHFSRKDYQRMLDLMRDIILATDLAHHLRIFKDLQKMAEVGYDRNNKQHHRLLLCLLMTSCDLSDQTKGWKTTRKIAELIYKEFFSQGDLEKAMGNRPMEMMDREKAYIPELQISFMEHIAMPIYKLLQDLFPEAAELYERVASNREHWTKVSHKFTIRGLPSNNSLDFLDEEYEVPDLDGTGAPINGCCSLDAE

In general, Ki refers to a measure of affinity in units of concentration, obtained from inhibition or displacement. As to `C[C@@H](NC(=O)c1cc(=O)[nH]c(N(C)C)n1)c1cc(F)c(C(F)(F)F)cc1F` [Example 36, N-{(1R)-1-[2,5-difluoro-4-(trifluoromethyl)phenyl]ethyl}-2-(dimethylamino)-6-oxo-1,6-dihydropyrimidine-4-carboxamide], the Ki stood at 4.9 nM in test [1] (setting [3]) and 7.7 nM in test [2] (setting [4]).
With `COCC1CCN(c2nc(C(=O)N[C@@H](c3ccc(C(F)(F)F)cc3)C(C)(C)C)cc(=O)[nH]2)C1` (stereo partly drawn) [Example 14, N—((R)-2,2-dimethyl-1-(4-(trifluoromethyl)phen)propyl)-2-(3-(methoxymethyl)pyrrolidin-1-yl)-6-oxo-1,6-dihydropyrimidine-4-carboxamide], the Ki worked out at 0.41 nM in test [1] (Rhesus PDE2 Ki (nM) - Lab B, Lab B) and 0.34 nM in test [2] (setting [4]).
Turning to `CSc1nc(C(=O)N[C@H](C)c2ccc(C(F)(F)F)cc2)cc(=O)[nH]1` [Example 15, (R)-2-(methylthio)-6-oxo-N-(1-(4-(trifluoromethyl)phenyl)ethyl)-1,6-dihydropyrimidine-4-carboxamide], the values for the Ki in test [1] (setting [5]) and in test [2] (setting [6]) were 46 nM and 31 nM, respectively.
For `C[C@@H](NC(=O)c1cc(=O)[nH]c(Nc2ccccn2)n1)c1ccc(C(F)(F)F)cc1` [Example 136, 6-oxo-2-(pyridin-2-ylamino)-N-{(1R)-1-[4-(trifluoromethyl)phenyl]ethyl}-1,6-dihydropyrimidine-4-carboxamide], in that order: 610 nM and 491 nM.
In the same order, the values of `COCCCOc1nc(C(=O)NC(C)c2ccc(C(F)(F)F)cc2)cc(=O)[nH]1` (centres unmarked) [Example 179, 2-(3-methoxypropoxy)-6-oxo-N-{1-[4-(trifluoromethyl)phenyl]ethyl}-1,6-dihydropyrimidine-4-carboxamide] are 108 nM and 75 nM.
Take `O=C(N[C@@H](c1ccc(OC(F)(F)F)c(F)c1)C1CC1)c1cc(=O)[nH]c(N2CCCC2)n1` [Example 25, N-{(R)-cyclopropyl[3-fluoro-4-(trifluoromethoxy)phenyl]methyl}-6-oxo-2-pyrrolidin-1-yl-1,6-dihydropyrimidine-4-carboxamide]: the Ki in test [1] (setting [5]) came out at 0.85 nM; in test [2] (setting [6]), 0.37 nM.
For `COc1ccc(Oc2nc(C(=O)N[C@H](C)c3ccc(C(F)(F)F)cc3)cc(=O)[nH]2)cc1OC` [Example 22, (R)-2-(3,4-dimethoxyphenoxy)-6-oxo-N-(1-(4-(trifluoromethyl)phenyl)ethyl)-1,6-dihydropyrimidine-4-carboxamide], in that order: 727 nM and 988 nM.
On to `CN(C)c1nc(C(=O)N[C@@H](c2ccc(OC(F)(F)F)c(Cl)c2)C2CC2)cc(=O)[nH]1` [Example 85, N-[(R)-[3-chloro-4-(trifluoromethoxy)phenyl](cyclopropyl)methyl]-2-(dimethylamino)-6-oxo-1,6-dihydropyrimidine-4-carboxamide], for which the Ki in test [1] (setting [5]) came out at 2 nM; in test [1] (setting [3]), 4.9 nM; in test [2] (setting [4]) it was 3.6 nM.
`CC(C)C(C)(NC(=O)c1cc(=O)[nH]c(N(C)C)n1)c1ccc(S(F)(F)(F)(F)F)cc1` (centres unmarked) [Example 39, 2-(dimethylamino)-N-{1,2-dimethyl-1-[4-(pentafluoro-λ^6-sulfanyl)phenyl]propyl}-6-oxo-1,6-dihydropyrimidine-4-carboxamide]: the Ki in test [1] (setting [3]) stood at 8.7 nM; in test [2] (setting [4]), 12 nM.
In the case of `C[C@@H](NC(=O)c1cc(=O)[nH]c(N(C)C)n1)c1ccc(OC(F)(F)F)c(Cl)c1` [Example 3, (R)—N-(1-(3-chloro-4-(trifluoromethoxy)phenyl)ethyl)-2-(dimethylamino)-6-oxo-1,6-dihydropyrimidine-4-carboxamide], the Ki in test [1] (setting [5]) is 0.82 nM; in test [1] (setting [3]), 1.5 nM; in test [2] (setting [4]), 1.6 nM.
Turning to `CCN(C)c1nc(C(=O)N[C@H](C)c2ccc(C(F)(F)F)cc2)cc(=O)[nH]1` [Example 141, 2-[ethyl(methyl)amino]-6-oxo-N-{(1R)-1-[4-(trifluoromethyl)phenyl]ethyl}-1,6-dihydropyrimidine-4-carboxamide], the Ki is 10.3 nM in test [1] (setting [5]) and 6 nM in test [2] (setting [6]).
With `C[C@@H](NC(=O)c1cc(=O)[nH]c(NC2CCCC2)n1)c1ccc(C(F)(F)F)cc1` [Example 139, 2-(cyclopentylamino)-6-oxo-N-{(1R)-1-[4-(trifluoromethyl)phenyl]ethyl}-1,6-dihydropyrimidine-4-carboxamide], the Ki in test [1] (setting [5]) came out at 109 nM; in test [2] (setting [6]), 56 nM.
With `C[C@@H](NC(=O)c1cc(=O)[nH]c(NC2CC2)n1)c1ccc(C(F)(F)F)cc1` [Example 140, 2-(cyclopropylamino)-6-oxo-N-{(1R)-1-[4-(trifluoromethyl)phenyl]ethyl}-1,6-dihydropyrimidine-4-carboxamide], the Ki turned out to be 54 nM in test [1] (setting [5]) and 51 nM in test [2] (setting [6]).
For `CCOc1nc(C(=O)N[C@H](C)c2ccc(C(F)(F)F)cc2)cc(=O)[nH]1` [Example 18, (R)-2-ethoxy-6-oxo-N-(1-(4-(trifluoromethyl)phenyl)ethyl)-1,6-dihydropyrimidine-4-carboxamide], in that order: 63 nM and 72 nM.
For `COc1nc(C(=O)N[C@H](C)c2ccc(C(F)(F)F)cc2)cc(=O)[nH]1` [Example 17, (R)-2-methoxy-6-oxo-N-(1-(4-(trifluoromethyl)phenyl)ethyl)-1,6-dihydropyrimidine-4-carboxamide], in that order: 130 nM and 115 nM.
`CN(C)c1nc(C(=O)NC(c2ccc(C3(C)CC3)c(F)c2)C(C)(C)C)cc(=O)[nH]1` (single isomer, unassigned) [Example 124, (R)- or (S)-2-(dimethylamino)-N-{1-[3-fluoro-4-(1-methylcyclopropyl)phenyl]-2,2-dimethylpropyl}-6-oxo-1,6-dihydropyrimidine-4-carboxamide]: the Ki stood at 0.45 nM in test [1] (setting [3]) and 0.34 nM in test [2] (setting [4]).
For `C[C@H](NC(=O)c1cc(=O)[nH]c(N(C)C)n1)c1ccc(S(F)(F)(F)(F)F)cc1F` [Example 117, (S)-2-(dimethylamino)-N-(1-(4-(pentafluorothio)-2-fluorophenyl)ethyl)-6-oxo-1,6-dihydropy-rimidine-4-carboxamide], in that order: 2.5 nM and 2.1 nM.
For `C[C@@H](NC(=O)c1cc(=O)[nH]c(N(C)C)n1)c1ccc(OC(F)(F)F)cc1F` [Example 83, 2-(dimethylamino)-N-{(1R)-1-[2-fluoro-4-(trifluoromethoxy)phenyl]ethyl}-6-oxo-1,6-dihydropyrimidine-4-carboxamide], in that order: 2.3 nM and 2.4 nM.
As to `CCN(CC)c1nc(C(=O)N[C@H](C)c2ccc(C(F)(F)F)cc2)cc(=O)[nH]1` [Example 142, 2-(diethylamino)-6-oxo-N-{(1R)-1-[4-(trifluoromethyl)phenyl]ethyl}-1,6-dihydropyrimidine-4-carboxamide], the Ki worked out at 23 nM in test [1] (setting [5]) and 16 nM in test [2] (setting [6]).
For `C[C@@H](NC(=O)c1cc(=O)[nH]c(N2CCOCC2)n1)c1ccc(C(F)(F)F)cc1` [Example 132, 2-morpholin-4-yl-6-oxo-N-{(1R)-1-[4-(trifluoromethyl)phenyl]ethyl}-1,6-dihydropyrimidine-4-carboxamide], in that order: 60 nM and 30 nM.
On to `CN(C)c1nc(C(=O)NC(C)(C)c2ccc(C(F)(F)F)cc2F)cc(=O)[nH]1` [Example 82, 2-(dimethylamino)-N-{1-[2-fluoro-4-(trifluoromethyl)phenyl]-1-methylethyl}-6-oxo-1,6-dihydropyrimidine-4-carboxamide], for which the Ki was 2 nM in test [1] (setting [3]) and 2.5 nM in test [2] (setting [4]).
